Measured values published in patent US20240083857A1, “2-Methyl-Quinazolines” (Bayer Pharma Aktiengesellschaft, priority 2017, published 2024).

Legend:
[1] = molecular target: Epidermal Growth Factor Receptor (EGFR) (Homo sapiens (Human), UniProt P00533); test: EGFR kinase assay (TR-FRET); assay type: biochemical; details: E-notation values; unit inferred; read-out: EGFR-assay IC50
How it was run: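 Read-out is the 665/620 nm HTRF ratio, from a Tb-cryptate anti-phosphotyrosine antibody and streptavidin-XL665 bound to phosphorylated biotin-peptide substrate. The enzyme, A431-derived EGFR (~3 U/ml), was given 15 min compound pre-binding at 22° C in Hepes pH 7.0 with Mg2+/Mn2+ before reaction.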

[2] = molecular target: human SOS1 (nucleotide exchange of K-Ras^G12C) (Homo sapiens, UniProt Q07889); test: Biochemical assay 2: K-Ras^G12C activation assay by hSOS1 at high GTP concentration (HTRF); details: E-notation values; unit inferred; 50 μM GTP; read-out: Assay 2 (KRAS-Activation, high GTP) IC50

Chain of Epidermal Growth Factor Receptor (EGFR) (P00533 25-1210): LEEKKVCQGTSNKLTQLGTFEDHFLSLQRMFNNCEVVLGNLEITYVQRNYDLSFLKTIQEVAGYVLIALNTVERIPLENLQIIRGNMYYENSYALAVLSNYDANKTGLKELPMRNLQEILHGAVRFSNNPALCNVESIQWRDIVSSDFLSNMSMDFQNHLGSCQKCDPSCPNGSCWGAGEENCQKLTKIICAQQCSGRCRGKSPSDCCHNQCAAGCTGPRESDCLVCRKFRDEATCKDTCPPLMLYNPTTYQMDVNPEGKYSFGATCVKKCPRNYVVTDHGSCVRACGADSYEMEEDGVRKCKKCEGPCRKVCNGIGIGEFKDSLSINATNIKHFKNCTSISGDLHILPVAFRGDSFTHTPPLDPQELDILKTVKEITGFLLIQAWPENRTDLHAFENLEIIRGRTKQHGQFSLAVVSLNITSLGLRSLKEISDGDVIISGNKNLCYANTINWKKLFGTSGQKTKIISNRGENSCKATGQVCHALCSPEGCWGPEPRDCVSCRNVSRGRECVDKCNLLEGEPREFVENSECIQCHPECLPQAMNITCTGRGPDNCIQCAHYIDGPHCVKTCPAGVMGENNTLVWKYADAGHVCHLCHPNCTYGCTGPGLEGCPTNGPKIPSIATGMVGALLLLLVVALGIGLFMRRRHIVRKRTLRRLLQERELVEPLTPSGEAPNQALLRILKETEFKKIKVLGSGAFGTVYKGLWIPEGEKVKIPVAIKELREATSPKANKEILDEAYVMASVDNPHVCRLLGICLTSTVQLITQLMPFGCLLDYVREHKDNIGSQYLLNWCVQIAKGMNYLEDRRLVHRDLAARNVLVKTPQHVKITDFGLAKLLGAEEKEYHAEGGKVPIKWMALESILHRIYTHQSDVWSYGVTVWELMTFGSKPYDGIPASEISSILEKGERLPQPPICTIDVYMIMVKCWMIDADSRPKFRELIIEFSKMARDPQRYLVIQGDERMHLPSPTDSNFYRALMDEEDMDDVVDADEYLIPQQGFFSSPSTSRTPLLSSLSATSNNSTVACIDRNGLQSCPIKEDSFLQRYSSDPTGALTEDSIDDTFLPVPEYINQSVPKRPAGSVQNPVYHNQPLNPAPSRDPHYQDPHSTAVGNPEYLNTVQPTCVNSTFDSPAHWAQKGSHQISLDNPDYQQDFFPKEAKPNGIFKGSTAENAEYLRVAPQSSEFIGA

| Structure (SMILES) | IC50 [1] [nM] | IC50 [2] [nM] |
| --- | --- | --- |
| Cc1nc(NC(C)c2ccc(-c3ccccc3CN(C)C)s2)c2cc(N3CCC(N(C)C)C3)ccc2n1 (stereo not shown) [Example 418, N-[1-(5-{2-[(dimethylamino)methyl]phenyl}thiophen-2-yl)ethyl]-6-[3-(dimethylamino)pyrrolidin-1-yl]-2-methylquinazolin-4-amine] | > 20000 | 39.8 |
| Cc1nc(NC(C)c2ccc(Br)s2)c2cc(N3CCCC3)ccc2n1 (stereo not shown) [Example 419, N-[1-(5-bromothiophen-2-yl)ethyl]-2-methyl-6-(pyrrolidin-1-yl)quinazolin-4-amine] | > 20000 | 3740 |
| CC(=O)Nc1ccc2nc(C)nc(NC(C)c3ccc(-c4ccccc4CN(C)C)s3)c2c1 (stereo not shown) [Example 420, N-(4-{[1-(5-{2-[(dimethylamino)methyl]phenyl}thiophen-2-yl)ethyl]amino}-2-methylquinazolin-6-yl)acetamide] | > 20000 | 384 |
| COc1ccc(-c2ccc(C(C)Nc3nc(C)nc4cc(OC)c(OC)cc34)s2)c(C)c1 (stereo not shown) [Example 422, 6,7-dimethoxy-N-{1-[5-(4-methoxy-2-methylphenyl)thiophen-2-yl]ethyl}-2-methylquinazolin-4-amine] | > 20000 | 914 |
| Cc1nc(NC(C)c2ccc(-c3ccccc3CN(C)C)s2)c2cc(N)ccc2n1 (stereo not shown) [Example 423, N4-[1-(5-{2-[(dimethylamino)methyl]phenyl}-2-thienyl)ethyl]-2-methylquinazoline-4,6-diamine] | > 20000 | 187 |
| Cc1nc(NC(C)c2ccc(Br)s2)c2cc(N3CCN(Cc4cccnc4)CC3)ccc2n1 (stereo not shown) [Example 424, N-[1-(5-bromothiophen-2-yl)ethyl]-2-methyl-6-[4-(pyridin-3-ylmethyl)piperazin-1-yl]quinazolin-4-amine] | > 20000 | 1410 |
| Cc1nc(NC(C)c2ccc(Br)s2)c2cc(NCCN3CCOCC3)ccc2n1 (stereo not drawn) [Example 425, N4-[l-(5-bromo-2-thienyl)ethyl]-2-methyl-N6-[2-(morpholin-4-yl)ethyl]quinazoline-4,6-diamine] | > 20000 | 2560 |
| Cc1nc(NC(C)c2ccc(-c3ccccc3CN(C)C)s2)c2cc(N3CCN(Cc4cccnc4)CC3)ccc2n1 (stereo not shown) [Example 426, N-[1-(5-{2-[(dimethylamino)methyl]phenyl}thiophen-2-yl)ethyl]-2-methyl-6-[4-(pyridin-3-ylmethyl)piperazin-1-yl]quinazolin-4-amine] | 4950 | 23 |
| CC(=O)NCCNc1ccc2nc(C)nc(NC(C)c3ccc(-c4ccccc4CN(C)C)s3)c2c1 (stereo not shown) [Example 427, N-{2-[(4-{[1-(5-{2-[(dimethylamino)methyl]phenyl}thiophen-2-yl)ethyl]amino}-2-methylquinazolin-6-yl)amino]ethyl}acetamide] | > 20000 | 49.8 |
| COc1cc2nc(C)nc(NC(C)c3sc(Br)cc3Cl)c2cc1OC (stereo not shown) [Example 428, N-[1-(5-bromo-3-chlorothiophen-2-yl)ethyl]-6,7-dimethoxy-2-methylquinazolin-4-amine] | > 20000 | 705 |
| COc1cc2nc(C)nc(NC(C)c3sc(-c4ccccc4CNC(=O)OC(C)(C)C)cc3Cl)c2cc1OC (stereo not shown) [Example 429, tert-butyl [2-(4-chloro-5-{1-[(6,7-dimethoxy-2-methylquinazolin-4-yl)amino]ethyl}thiophen-2-yl)benzyl]carbamate] | > 20000 | 3050 |
| COc1cc2nc(C)nc(NC(C)c3cc(Cl)c(-c4ccccc4CN)s3)c2cc1OC (stereo not shown) [Example 430, N-[1-{5-[2-(aminomethyl)phenyl]-4-chlorothiophen-2-yl}ethyl]-6,7-dimethoxy-2-methylquinazolin-4-amine] | > 20000 | 378 |
| COc1cc2nc(C)nc(NC(C)c3cc(Cl)c(-c4ccccc4CN(C)C)s3)c2cc1OC (stereo not shown) [Example 431, N-[1-(4-chloro-5-{2-[(dimethylamino)methyl]phenyl}thiophen-2-yl)ethyl]-6,7-dimethoxy-2-methylquinazolin-4-amine] | > 20000 | 215 |
| COc1cc2nc(C)nc(NC(C)c3cc(Cl)c(Br)s3)c2cc1OC (stereo not shown) [Example 432, N-[1-(5-bromo-4-chlorothiophen-2-yl)ethyl]-6,7-dimethoxy-2-methylquinazolin-4-amine] | > 20000 | 15700 |
| Cc1nc(NC(C)c2ccc(-c3ccccc3CN(C)C)s2)c2cc(NCCN3CCOCC3)ccc2n1 (stereo not shown) [Example 433, N4-[1-(5-{2-[(dimethylamino)methyl]phenyl}-2-thienyl)ethyl]-2-methyl-N6-[2-(morpholin-4-yl)ethyl]quinazoline-4,6-diamine] | > 20000 | 70.1 |
| Cc1nc(NC(C)c2ccc(Br)s2)c2cc(N3CCN(C)C(=O)C3)ccc2n1 (stereo not shown) [Example 434, 4-(4-{[1-(5-bromothiophen-2-yl)ethyl]amino}-2-methylquinazolin-6-yl)-1-methylpiperazin-2-one] | 16600 | 2390 |
| Cc1nc(NC(C)c2ccc(-c3ccccc3CN(C)C)s2)c2cc(N3CCN(C)C(=O)C3)ccc2n1 (stereo not shown) [Example 435, 4-(4-{[1-(5-{2-[(dimethylamino)methyl]phenyl}thiophen-2-yl)ethyl]amino}-2-methylquinazolin-6-yl)-1-methylpiperazin-2-one] | > 20000 | 51.9 |
| COC(=O)C(C)(C)c1ccccc1-c1ccc(C(C)Nc2nc(C)nc3cc(OC)c(OC)cc23)s1 (stereo not shown) [Example 436, methyl 2-[2-(5-{1-[(6,7-dimethoxy-2-methylquinazolin-4-yl)amino]ethyl}thiophen-2-yl)phenyl]-2-methylpropanoate] | > 20000 | 1470 |
| COc1cc2nc(C)nc(NC(C)c3sc(-c4ccccc4CN)cc3Cl)c2cc1OC (stereo not shown) [Example 437, N-[1-{5-[2-(aminomethyl)phenyl]-3-chlorothiophen-2-yl}ethyl]-6,7-dimethoxy-2-methylquinazolin-4-amine] | > 20000 | 95.3 |
| Cc1nc(NC(C)c2ccc(-c3ccccc3CN(C)C)s2)c2cc(NS(C)(=O)=O)ccc2n1 (stereo not shown) [Example 438, N-(4-{[1-(5-{2-[(dimethylamino)methyl]phenyl}thiophen-2-yl)ethyl]amino}-2-methylquinazolin-6-yl)methanesulfonamide] | > 20000 | 65.5 |
| COc1ccc(-c2ccc(C(C)Nc3nc(C)nc4cc(OC)c(OC)cc34)s2)c(CN(C)C)c1 (stereo not shown) [Example 439, N-[1-(5-{2-[(dimethylamino)methyl]-4-methoxyphenyl}thiophen-2-yl)ethyl]-6,7-dimethoxy-2-methylquinazolin-4-amine] | > 20000 | 145 |
| Cc1nc(NC(C)c2ccc(-c3ccccc3CN(C)C)s2)c2cc(NC(=O)N(C)C)ccc2n1 (stereo not shown) [Example 440, 3-(4-{[1-(5-{2-[(dimethylamino)methyl]phenyl}thiophen-2-yl)ethyl]amino}-2-methylquinazolin-6-yl)-1,1-dimethylurea] | > 20000 | 576 |
| Cc1nc(NC(C)c2ccc(Br)s2)c2cc(N3CCN(Cc4ccccc4)C(=O)C3)ccc2n1 (stereo not shown) [Example 441, 1-benzyl-4-(4-{[1-(5-bromothiophen-2-yl)ethyl]amino}-2-methylquinazolin-6-yl)piperazin-2-one] | > 20000 | 3950 |
| COc1cc2nc(C)nc(NC(C)c3ccc(-c4ccc(C)cc4CN(C)C)s3)c2cc1OC (stereo not shown) [Example 442, N-[1-(5-{2-[(dimethylamino)methyl]-4-methylphenyl}thiophen-2-yl)ethyl]-6,7-dimethoxy-2-methylquinazolin-4-amine] | > 20000 | 39.4 |
| COc1cc2nc(C)nc(NC(C)c3ccc(-c4ccc(C5CC5)cc4CN(C)C)s3)c2cc1OC (stereo not shown) [Example 443, N-[1-(5-{4-cyclopropyl-2-[(dimethylamino)methyl]phenyl}thiophen-2-yl)ethyl]-6,7-dimethoxy-2-methylquinazolin-4-amine] | > 20000 | 60.5 |
| COc1cc2nc(C)nc(NC(C)c3ccc(-c4ccccc4C(C)(C)N)s3)c2cc1OC (stereo not shown) [Example 455, N-[1-{5-[2-(2-aminopropan-2-yl)phenyl]thiophen-2-yl}ethyl]-6,7-dimethoxy-2-methylquinazolin-4-amine] | > 20000 | 1040 |
| COc1cc2nc(C)nc(NC(C)c3ccc(-c4ccccc4CN(C)CC#N)s3)c2cc1OC (stereo not shown) [Example 456, {[2-(5-{1-[(6,7-dimethoxy-2-methylquinazolin-4-yl)amino]ethyl}thiophen-2-yl)benzyl](methyl)amino}acetonitrile] | > 20000 | 292 |
| CNC(=O)Nc1ccc2nc(C)nc(NC(C)c3ccc(-c4ccccc4CN(C)C)s3)c2c1 (stereo not shown) [Example 457, 1-(4-{[1-(5-{2-[(dimethylamino)methyl]phenyl}thiophen-2-yl)ethyl]amino}-2-methylquinazolin-6-yl)-3-methylurea] | > 20000 | 682 |
| Cc1nc(NC(C)c2ccc(-c3ccccc3CN(C)C)s2)c2cc(N3CCN(Cc4ccccc4)C(=O)C3)ccc2n1 (stereo not shown) [Example 458, 1-benzyl-4-(4-{[1-(5-{2-[(dimethylamino)methyl]phenyl}thiophen-2-yl)ethyl]amino}-2-methylquinazolin-6-yl)piperazin-2-one] | > 20000 | 40 |
